Results on eight compounds are retold here after patent US7671009B2, “Dermopharmaceutically and cosmetically active oligopeptides” (DSM IP Assets B.V., priority 2001, dated 2010).

*: point of attachment. Palmitoyl = CCCCCCCCCCCCCCCC(=O)*

In the assay the test system is Collagen Synthesis Type I+III in Fibroblast Cell Cultures (ATCC CCL110). The experiment in a line: Stimulation of collagen synthesis type I+III in fibroblast cell cultures, Sirius Red microassay. It is filed as cell-based. The following applies: 24 hours incubation, control without active = 100%. The procedure: The collagen I and III content in fibroblasts is measured with the Sirius Red microassay. The quantitative determination of collagen is carried out after 24 hours of incubation with the corresponding oligopeptide derivatives. The extracellularly accumulated collagen is determined. Vitamin C and TGF-beta-1 are used as positive controls.
ATCC CCL110 fibroblasts are incubated in culture medium at a density of approx. 125,000 cells/well in 6-well cell culture plates for 2 days (37° C./5% CO2). Afterwards, the medium is discarded and washed twice with PBS, whereupon 1 ml of test medium with corresponding test substances is added. After incubation with test substance under culture conditions (37° C./5% CO2) for further 24 hours, the extracellular collagen is measured with the Sirius Red assay.
After the incubation period, the total volume of test medium (1 ml) is transferred into a flat-bottom 24-well plate and dried overnight at 55° C. The samples are fixed with 1 ml/well of Bouin's fluid for 1 hour at room temperature (RT). The fixing solution is discarded and the plates are washed 2-3 times with water. After drying of the plates, 1 ml of Sirius Red dye reagent is added.
The samples are shaken for 1 hour at RT on a microplate agitator at moderate intensity. Afterwards, the Sirius Red dye reagent is discarded and the plates are washed with 0.01N HCl. The tinted material is dissolved in 0.3 ml of 0.1N NaOH solution and shaken on a microplate agitator for 1 hour at RT.
200 μl of solution is transferred into a flat-bottom 96-well plate and the optical density is measured at 540 nm against 0.1N NaOH solution as the blank.
Culture medium: MEM+10% FCS+100 IU/ml penicillin+0.1 mg/ml streptomycin+1 mM non essential amino acids+1 mM Na-pyruvate+2 mM L-glutamine.
Test medium: DMEM without phenol red (AMIMED)+100 IU/ml penicillin+0.1 mg/ml streptomycin+80 μg/ml beta(β)-aminopropionitrile.
Vitamin C 100 mM (SIGMA A4034) is diluted to 50 μg/ml in the test medium.
Transforming growth factor TGFβ1 1 μg/ml (SIGMA T1654) is diluted to 0.1 ng/ml in the test medium.
The oligopeptide derivatives of the present invention are prepared in a regular concentration of 10 mM and diluted to 50 μM in the test medium.
Sirius Red F3BA dye reagent as the stock solution 1 mg/ml in saturated aqueous picric acid solution. Bouin's fluid: 15 ml of saturated aqueous picric acid solution+5 ml of formaldehyde+1 ml of acetic acid.

On to `O=C1O[C@H]([C@@H](O)CO)C(O)=C1O` [Vitamin C, reference compound], for which the “collagen type I + III after 24 hours, Extracellular” value (“collagen type I + III” below) (Vitamin C positive control, diluted to 50 μg/ml in test medium) is on record as 128%.

Regarding H-Dab-Ser-OH × 2 TFA, the “collagen type I + III” value (test substance 50 μM) came to 131%.

Turning to H-Lys-Thr-Thr-Dab-Ser-OH × 3 AcOH, for the setting “test substance 50 μM”, the “collagen type I + III” value is reported as 137%.

As for H-Lys-Thr-allo-Thr-Lys-Ser-OH × 3 AcOH, the “collagen type I + III” value (test substance 50 μM) is 134%.

For “H-Lys-allo-Thr-allo-Thr-Lys-Ser-OH × 3 AcOH”, the “collagen type I + III” value (test substance 50 μM) was determined as 139%.

In the case of “Lipoyl-Lys (Lipoyl)-Thr-Thr-Lys (Lipoyl)-Ser-OH”, the “collagen type I + III” value (test substance 50 μM) is given as 162%.

As to “Palm-Lys-Thr-Ser-Lys-Ser-OH (Palmitoyl-KTSKS-OH; SMILES CCCCCCCCCCCCCCCC(=O)N[C@@H](CCCCN)C(=O)N[C@H](C(=O)N[C@@H](CO)C(=O)N[C@@H](CCCCN)C(=O)N[C@@H](CO)C(=O)O)[C@@H](C)O)”, where the note is “test substance 50 μM”, the “collagen type I + III” value was 128%.

As for “TGFβ1: Transforming growth factor TGFβ1 (SIGMA T1654), positive control [reference compound]”, the “collagen type I + III” value (0.1 ng/ml) worked out at 115%.
